Laboratory results taken from patent US8501162B2, “Compositions and methods for the skin and hair” (The Boots Company PLC, priority 2007, dated 2013).

Assay: ABEL antioxidant assay with peroxynitrite, raw materials and combinations of three raw materials in solvent
Format: biochemical
Conditions: for ABEL-RAC contribution in combination: ABEL-RAC of pure ingredient x percentage of ingredient in combination
Source text: The ABEL antioxidant assay is an in vitro assay for testing the antioxidant capacity of a material. It utilises a photoprotein, which emits light when challenged with various free radical species, eg peroxynitrite, hydroxyl radicals or halogenated oxidants.
If a material is challenged with one or more of these free radical species, then any antioxidant in the sample will compete with the photoprotein. The result of this competition is a reduction in the amount of light emitted and sometimes, in addition, a delay in the time at which the maximum light emitted occurs. A light response curve can be produced for each sample tested, and EC50 and ABEL-RAC values calculated. The EC50 (effective concentration) is the concentration (normalised to g/L or mg/mL) of a material that reduces the light emitted by 50%. This reduction in light is a measure of the antioxidant capacity of the test material. The reciprocal of the EC50 values multiplied by 100 is referred to as the ABEL-RAC score.
The ABEL® antioxidant assay with peroxynitrite is the assay of choice to assess total antioxidant capacity because peroxynitrite attacks almost all compounds, including hydrophobic and hydrophilic antioxidants. Pro-oxidants are also identified with the peroxynitrite assay. Other ABEL® antioxidant assays use superoxide (produced as a single bolus in high concentration as well as enzymatically), hydroxyl radical and hyperchlorous acid (the halogenated oxidant assay). Pro-oxidants are not observed with the hydroxyl radical and halogenated oxidant assays. The hydroxyl radical assay is recommended when samples are water-soluble and the halogenated assay when the samples are soluble in organic solvent. This is because solvents such as ethanol, methanol, acetone and DMSO are good quenchers of hydroxyl radicals, and therefore the organic solvents contribute to the antioxidant effect shown by the sample. Organic solvents have little effect, however, on the halogenated oxidant assay.
• 1. The antioxidant agents (referred to as raw materials (RM) hereafter) were first dissolved in an appropriate solvent as detailed in Table 1. • 2. Combinations of three raw materials were prepared for testing by combining one part each of three raw material dilutions, at the concentrations specified in Table 2. • 3. In Table 2 each combination is given a combination number and each combination number is further described as A, B or C, where the concentrations of the raw material dilutions used in B are ten times greater that A, and the concentrations used in C are ten times greater than B (one hundred times greater than A). • 4. The concentrations of raw materials provided in Table 2 are the final concentrations of those materials in the ABEL® antioxidant assay.
Raw material combinations 1, 3, 4, 8 and 9 were assayed at three additional concentrations which are dilutions of concentration A (see Table 2). The details are contained in Table 3.

## COc1cc2c(cc1O)CCC(C)(C)O2 [RM10, dimethylmethoxy chromanol]
Combination 1
  ABEL-RAC contribution in combination: 35221
Combination 3
  ABEL-RAC contribution in combination: 10031
Combination 4
  ABEL-RAC contribution in combination: 9606
Combination 8
  ABEL-RAC contribution in combination: 4832
Diluted with IMS versus diluted with ethanol, FIG. 19
  Effect of solvent (ethanol rather than IMS) on ABEL peroxynitrite assay result: does not make an appreciable difference
Pure raw material, ABEL peroxynitrite assay
  EC50 mg/mL of pure ingredient: 0.0018 mg/mL
Pure raw material, ABEL-RAC = reciprocal of EC50 x 100
  ABEL-RAC peroxynitrite of pure ingredient: 88053
